Like-named read-outs stand apart in the source and are kept apart here.
What was measured:
SFRP-1 [1] = target: T1, SFRP-1 (Homo sapiens, UniProt Q8N474); test: Fluorescence polarization binding assay (competitive displacement of a probe compound from SFRP-1); details: fluorescence anisotropy, 45 nM SFRP-1, 20 nM probe;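 further: test compound competes with a fluorescent probe held by SFRP-1, seen as a drop in probe anisotropy after incubation in darkness, with anisotropy as function of rising compound dose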
T1 sequence (Q8N474 32-314): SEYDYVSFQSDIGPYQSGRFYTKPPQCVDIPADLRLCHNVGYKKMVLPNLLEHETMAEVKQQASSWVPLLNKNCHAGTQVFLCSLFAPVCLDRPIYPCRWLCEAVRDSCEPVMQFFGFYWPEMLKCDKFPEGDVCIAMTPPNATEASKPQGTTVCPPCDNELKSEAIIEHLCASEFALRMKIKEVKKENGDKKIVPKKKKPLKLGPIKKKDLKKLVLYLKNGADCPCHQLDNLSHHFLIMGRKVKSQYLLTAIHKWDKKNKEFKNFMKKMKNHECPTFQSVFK

SFRP-1 [2] = target: T1, SFRP-1; test: Cell-based assay for in vitro measurement of SFRP-1/SARP2 antagonist activity (U2OS cells co-transfected with 16x TCF-tk-Luciferase reporter, Wnt and hSFRP-1); details: for fold induction at 10 µM / fold induction at 15 µM / fold induction at 14 µM: U2OS;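 on all read-outs here: U2OS cells co-transfected with a TCF-tk luciferase reporter, a Wnt vector, hSFRP-1 or empty vector and CMV-βgal, luciferase luminescence read in cell lysates alongside βgal activity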
[3] = read-out: Fold Induction with SFRP-1, U2OS cells, single dose 10 μM, luciferase reporter, fold induction over SFRP-1 control
[4] = read-out: Fold Induction with SFRP-1, Conc 15 μM, with SFRP-1, fold induction over SFRP-1 control, single dose
[5] = read-out: Fold Induction without SFRP-1, Conc 15 μM, without SFRP-1, single dose
[6] = read-out: Fold Induction with SFRP-1, Conc 15 μM, single dose, luciferase reporter, fold induction over SFRP-1 control, cells with SFRP-1
[7] = read-out: Fold Induction without SFRP-1, Conc 15 μM, single dose, luciferase reporter, cells without SFRP-1 (specificity control)

Row | IC50 (SFRP-1 [1]) [nM] | EC50 (SFRP-1 [2]) [nM] | fold induction at 10 µM (SFRP-1 [2]; [3]) | SMILES | other results
1 | 70 | 795 | 3.5 | O=C(O)CCCC(=O)N1CCC(CNS(=O)(=O)c2cc(S(=O)(=O)c3ccccc3)ccc2C(F)(F)F)CC1 [Example 903, 5-oxo-5-{4-[({[5-(phenylsulfonyl)-2-(trifluoromethyl)phenyl]sulfonyl}amino)methyl]piperidin-1-yl}pentanoic acid] | 
2 | 2800 | 11700 | 2.2 | O=C(c1ccc(F)cc1)N1CCC(NS(=O)(=O)c2cc(S(=O)(=O)c3ccccc3)ccc2Cl)CC1 [Example 656, 2-chloro-N-[1-(4-fluorobenzoyl)piperidin-4-yl]-5-(phenylsulfonyl)benzenesulfonamide] | 
3 | 7000 |  |  | Cc1ccc(S(=O)(=O)c2ccc(N[C@@H](C)C3CCCCC3)cc2)cc1S(=O)(=O)NCCCn1ccnc1 [Example 371, 5-[(4-{[(1S)-1-cyclohexylethyl]amino}phenyl)sulfonyl]-N-[3-(1H-imidazol-1-yl)propyl]-2-methylbenzenesulfonamide] | fold induction at 15 µM (SFRP-1 [2]; [4]): 1.4; fold induction at 15 µM (SFRP-1 [2]; [5]): 0.8
4 | 2900 |  |  | Cc1ccc(S(=O)(=O)c2ccc(F)cc2)cc1S(=O)(=O)NCCCn1ccnc1 [Example 177, 5-[(4-fluorophenyl)sulfonyl]-N-[3-(1H-imidazol-1-yl)propyl]-2-methylbenzenesulfonamide] | fold induction at 14 µM (SFRP-1 [2]; read-out: Fold Induction with SFRP-1, Conc 14 μM, with SFRP-1, fold induction over SFRP-1 control, single dose): 2.9; fold induction at 15 µM (SFRP-1 [2]; [4]): 3.6; fold induction at 14 µM (SFRP-1 [2]; read-out: Fold Induction without SFRP-1, Conc 14 μM, without SFRP-1, single dose): 1; fold induction at 15 µM (SFRP-1 [2]; [5]): 1
5 | 18000 |  |  | Cc1ccc(S(=O)(=O)c2ccc(F)cc2)cc1S(=O)(=O)NC1C[C@@H](C)O[C@@H](C)C1 (stereo partly drawn) [Example 841, N-[(2R*,4S*,6S*)-2,6-dimethyltetrahydro-2H-pyran-4-yl]-5-[(4-fluorophenyl)sulfonyl]-2-methylbenzenesulfonamide] | Fold Induction with SFRP-1 (SFRP-1 [2]; U2OS cells, single dose 10 μM, luciferase reporter, fold induction over SFRP-1 control): 1.6
6 | 900 |  | 3.6 | O=S(=O)(NCCCN1CCOCC1)c1cc(S(=O)(=O)c2ccccc2)ccc1C(F)(F)F [Example 767, N-(3-morpholin-4-ylpropyl)-5-(phenylsulfonyl)-2-(trifluoromethyl)benzenesulfonamide] | 
7 | 60 | 374 |  | CC(C)(C)OC(=O)N1CCC[C@H]1C(=O)N1CCC(NS(=O)(=O)c2cc(S(=O)(=O)c3cccc(C#N)c3)ccc2C(F)(F)F)CC1 [Example 1095, tert-butyl (2S)-2-{[4-({[5-[(3-cyanophenyl)sulfonyl]-2-(trifluoromethyl)phenyl]sulfonyl}amino)piperidin-1-yl]carbonyl}pyrrolidine-1-carboxylate] | 
8 | 1200 |  | 2.5 | CN(CCNS(=O)(=O)c1cc(S(=O)(=O)c2ccccc2)ccc1C(F)(F)F)C(=O)c1ccc(C(C)(C)C)cc1 [Example 838, 4-tert-Butyl-N-methyl-N-[2-({[5-(phenylsulfonyl)-2-(trifluoromethyl)phenyl]sulfonyl}amino)ethyl]benzamide] | 
9 | 800 |  | 2.8 | CN(CCNS(=O)(=O)c1cc(S(=O)(=O)c2ccccc2)ccc1C(F)(F)F)C(=O)OCC(C)(C)C [Example 867, 2,2-dimethylpropyl methyl[2-({[5-(phenylsulfonyl)-2-(trifluoromethyl)phenyl]sulfonyl}amino)ethyl]carbamate] | 
10 | 2600 |  |  | CC(C)c1ccc(S(=O)(=O)c2cccc(C#N)c2)cc1S(=O)(=O)NCCc1ccccn1 [Example 539, 5-[(3-cyanophenyl)sulfonyl]-2-isopropyl-N-(2-pyridin-2-ylethyl)benzenesulfonamide] | fold induction at 15 µM (SFRP-1 [2]; [6]): 2.9; fold induction at 15 µM (SFRP-1 [2]; [7]): 1.2
11 | 4000 | 17600 | 3.3 | O=S(=O)(NC1CCOCC1)c1cc(S(=O)(=O)c2ccccc2)ccc1OC(F)(F)F [Example 662, 5-(phenylsulfonyl)-N-(tetrahydro-2H-pyran-4-yl)-2-(trifluoromethoxy)benzenesulfonamide] | 
12 | 4000 | 2980 | 1.6 | O=C(O)CN1CCCC1CCNS(=O)(=O)c1cc(S(=O)(=O)c2ccccc2)ccc1C(F)(F)F (stereo not drawn) [Example 918, {2-[2-({[5-(phenylsulfonyl)-2-(trifluoromethyl)phenyl]sulfonyl}amino)ethyl]pyrrolidin-1-yl}acetic acid] | 
13 | 4000 |  |  | COCC(=O)N1CCC(NS(=O)(=O)c2cc(S(=O)(=O)c3ccc(F)cc3)ccc2C)CC1 [Example 589, 5-[(4-fluorophenyl)sulfonyl]-N-[1-(methoxyacetyl)piperidin-4-yl]-2-methylbenzenesulfonamide] | fold induction at 15 µM (SFRP-1 [2]; [6]): 2.6; fold induction at 15 µM (SFRP-1 [2]; [7]): 1.3
14 | 3000 |  | 1.7 | O=S(=O)(NC1CCN(Cc2ccc(C(F)(F)F)cc2)CC1)c1cc(S(=O)(=O)c2ccccc2)ccc1C(F)(F)F [Example 749, 5-(phenylsulfonyl)-2-(trifluoromethyl)-N-{1-[4-(trifluoromethyl)benzyl]piperidin-4-yl}benzenesulfonamide] | 
15 | 600 |  |  | Cc1cccc(S(=O)(=O)c2ccc(C(C)C)c(S(=O)(=O)NCCc3ccccn3)c2)c1 [Example 579, 2-isopropyl-5-[(3-methylphenyl)sulfonyl]-N-(2-pyridin-2-ylethyl)benzenesulfonamide] | fold induction at 15 µM (SFRP-1 [2]; [6]): 3.4; fold induction at 15 µM (SFRP-1 [2]; [7]): 1
16 | 200 |  |  | CCC(O)CNc1ccc(S(=O)(=O)c2ccc(C(C)C)c(S(=O)(=O)NCCn3ccnc3)c2)cc1 (stereo not drawn) [Example 452, 5-({4-[(2-hydroxybutyl)amino]phenyl}sulfonyl)-N-[2-(1H-imidazol-1-yl)ethyl]-2-isopropylbenzenesulfonamide] | fold induction at 15 µM (SFRP-1 [2]; [4]): 3.8; fold induction at 15 µM (SFRP-1 [2]; [5]): 1
17 | 1800 | 1920 | 2.5 | CC(C)c1ccc(S(=O)(=O)c2ccccc2)cc1S(=O)(=O)NC1CCNCC1 [Example 924, 2-isopropyl-5-(phenylsulfonyl)-N-piperidin-4-ylbenzenesulfonamide] | 
18 | 700 | 1920 | 3.5 | CN(CCNS(=O)(=O)c1cc(S(=O)(=O)c2ccccc2)ccc1C(F)(F)F)C(=O)Nc1ccccc1 [Example 826, N-{2-[(anilinocarbonyl)(methyl)amino]ethyl}-5-(phenylsulfonyl)-2-(trifluoromethyl)benzenesulfonamide] | 
19 | 1200 |  |  | O=S(=O)(NCCc1cccnc1)c1cc(S(=O)(=O)c2ccccc2)ccc1Cl [Example 640, 2-chloro-5-(phenylsulfonyl)-N-(2-pyridin-3-ylethyl)benzenesulfonamide] | fold induction at 15 µM (SFRP-1 [2]; [6]): 3.5; fold induction at 15 µM (SFRP-1 [2]; [7]): 1.2
20 | 900 |  |  | COc1cccc(S(=O)(=O)c2ccc(C(C)C)c(S(=O)(=O)NC3CCOCC3)c2)c1 [Example 598, 2-isopropyl-5-[(3-methoxyphenyl)sulfonyl]-N-(tetrahydro-2H-pyran-4-yl)benzenesulfonamide] | fold induction at 15 µM (SFRP-1 [2]; [6]): 3.6; fold induction at 15 µM (SFRP-1 [2]; [7]): 1.4
21 | 2200 |  |  | Cc1ccc(S(=O)(=O)c2ccccc2)cc1S(=O)(=O)NC1CCN(C(=O)c2cccc(C#N)c2)CC1 [Example 477, N-[1-(3-cyanobenzoyl)piperidin-4-yl]-2-methyl-5-(phenylsulfonyl)benzenesulfonamide] | fold induction at 15 µM (SFRP-1 [2]; [4]): 2.1; fold induction at 15 µM (SFRP-1 [2]; [5]): 1
22 | 500 | 1750 | 3.5 | C[C@@H](NS(=O)(=O)c1cc(S(=O)(=O)c2ccccc2)ccc1C(F)(F)F)[C@@H](O)c1ccccc1 [Example 686, N-[(1R,2S)-2-hydroxy-1-methyl-2-phenylethyl]-5-(phenylsulfonyl)-2-(trifluoromethyl)benzenesulfonamide] | 
23 | 2000 |  |  | Cc1ccc(S(=O)(=O)c2ccc(C(C)(C)C)cc2)cc1S(=O)(=O)NCCCn1ccnc1 [Example 439, 5-[(4-tert-butylphenyl)sulfonyl]-N-[3-(1H-imidazol-1-yl)propyl]-2-methylbenzenesulfonamide] | fold induction at 15 µM (SFRP-1 [2]; [4]): 2; fold induction at 15 µM (SFRP-1 [2]; [5]): 0.9
24 | 800 |  | 3 | C[C@H](CO)NS(=O)(=O)c1cc(S(=O)(=O)c2ccccc2)ccc1C(F)(F)F [Example 726, N-[(1R)-2-hydroxy-1-methylethyl]-5-(phenylsulfonyl)-2-(trifluoromethyl)benzenesulfonamide] | 
25 | 6000 | 1740 | 2.5 | COC(=O)C1CCC(NS(=O)(=O)c2cc(S(=O)(=O)c3ccccc3)ccc2C(C)C)CC1 (stereo not drawn) [Example 933, methyl 4-({[2-isopropyl-5-(phenylsulfonyl)phenyl]sulfonyl}amino)cyclohexanecarboxylate] | 

Row | SMILES | IC50 (SFRP-1 [1]) [nM] | EC50 (SFRP-1 [2]) [nM] | fold induction at 10 µM (SFRP-1 [2]; [3]) | other results
26 | CN(CCNS(=O)(=O)c1cc(S(=O)(=O)c2ccccc2)ccc1C(F)(F)F)C(=O)Oc1ccc(Br)cc1 [Example 873, 4-bromophenyl methyl[2-({[5-(phenylsulfonyl)-2-(trifluoromethyl)phenyl]sulfonyl}amino)ethyl]carbamate] | 1600 |  |  | fold induction at 10 µM (SFRP-1 [2]; read-out: Fold Induction with SFRP-1): 2.1

Reference: US20060276464A1, “Diarylsulfone sulfonamides and use thereof” (Wyeth, priority 2005, published 2006)
